Test results taken from patent US6146824A, “Method for determining tumor cell adhesion” (Hadasit Medical Research Services and Development Company …, priority 1995, dated 2000).
No end group written: not given here.

What was measured:
melanoma cells = details: Humphries et al. (1988); cited from earlier work
B16-BL6 cells [1] = test: Adhesion of high metastatic B16-BL6 melanoma cells to coated substrate (methylene blue uptake); type: cell-based, murine; details: plates coated with 10, 50 or 250 μg/well peptide or 10 μg/ml plasmin-digested thrombin; 37° C., 2 hours
Protocol: (§1) Confluent endothelial cells were dissociated with trypsin-EDTA solution, washed once in growth medium and resuspended in DMEM containing 0.2% bovine serum albumin (BSA). 1.3×10^5 cells/well/0.2 ml DMEM containing 0.2 BSA were added to each protein-coated well and incubated at 37° C. for 2 h. The plates were then washed three times with phosphate batter saline (PBS) and the firmly attached cells were fixed with 3% paraformaldehyde. Fixed cells were then rinsed with 0.1 M borate buffer (pH 8.5), stained for 10 mins. at 22° C. with 0.1 ml/well methylene blue (1% in 0.1 M borate buffer, pH 8.5) and washed four times in borate buffer. This procedure removed practically all non cell-bound dye. Methylene blue which was incorporated by cells was dissolved with 0.1 N HCl (0.2 ml/well) for 40 mins. at 37° C., and determined by its absorbance at 600 nm. Tissue culture plates were coated with either 10, 50 or 250 μg/well of Th-1; with 10 μg/ml of thrombin digested by incubation at 22° C. for 1 hour with plasmin (2 μg/ml); or with 0.2% BSA which served as control (CON). 0.5×10^6 cells/wells of B16-BL6 or B16-F1 cells, which are known to present in vivo high and low pulmonary colonization, respectively, were incubated at 37° C. for 2 hours with the plates coated with the substrates described above. […] The level of cell attachment was evaluated by the methylene blue uptake assay described in I(E) above. […]

MeWoLN161 (61) cells = test: Adhesion of high metastatic human melanoma cells 61 to Th-1; type: cell-based; details: 100 μg/ml Th-1; compared with low metastatic MeWo
Protocol: (§2) Human melanoma cells established from lymph node metastases, being either MeWo cell lines representing diverse metastatic potentials, or a highly metastatic cell line originating from a melanoma patient (Nip et al., J. Clin. Invest. 90:1406-1413 (1992)) were used. High metastatic cells were selected by adhesion to lymph nodes and were designated as MeWoLN161 (also referred to as "61").
(§3) The cells were incubated with 100 μg/ml Th-1 and their adherence was determined as described above. As control, the level of adherence of the cells to BSA coated substrate was determined.

[2] = test system: B16-BL6 murine melanoma cells; test: Inhibition of lung colonization of co-injected B16-BL6 melanoma cells in C57BL/6 mice; type: in vivo
Protocol: 1×10^5 cells/0.2 ml/mouse B16-BL6 cells were injected into the lateral tail vein of unanesthetized C57BL/6 mice. The mice were monitored on a daily basis and sacrificed 2 weeks later by cervical dislocation. The animals were necropsied, and the lungs were removed, washed in water, and fixed in Bouin's solution (containing saturated solution of picric acid, 2% glacial acetic acid and 3% formaldehyde). The number of lung nodules was determined under a dissecting microscope.
B16-BL6 cell monolayers in culture were detached for 2 mins. with 0.02% EDTA and resuspended gently to 1×10^5 cells/0.2 ml DMEM. 0.5 mg/1×10^5 cells/0.2 ml of Th-1 was preincubated, at 37° C. for 30 mins, with a half of the cells' cultures prior to injecting mice. A single cell suspension (1×10^5 cells/0.2 ml/mouse), comprising either Th-1 treated or Th-1 untreated melanoma cells was injected slowly into the lateral tail vein of C57BL/6 mice.
Fourteen days after injection, the mice were sacrificed, and their lungs were excised and fixed with 10% formaldehyde and stained with saturated picric acid. The number of surface melanoma colonies was counted visually or with the aid of a dissecting microscope.

B16-F1 cells = test: Adhesion of low metastatic B16-F1 melanoma cells to coated substrate (methylene blue uptake); type: cell-based, murine; details: plates coated with 10, 50 or 250 μg/well peptide or 10 μg/ml plasmin-digested thrombin; 37° C., 2 hours
Protocol: as §1

B16-BL6 cells [3] = test: Inhibition of B16-BL6 cell adhesion to modified RGD-exposed thrombin (plasmin-digested); type: cell-based, murine
Protocol: Fixed cells were then rinsed with 0.1 M borate buffer (pH 8.5), stained for 10 mins. at 22° C. with 0.1 ml/well methylene blue (1% in 0.1 M borate buffer, pH 8.5) and washed four times in borate buffer. This procedure removed practically all non cell-bound dye. Methylene blue which was incorporated by cells was dissolved with 0.1 N HCl (0.2 ml/well) for 40 mins. at 37° C., and determined by its absorbance at 600 nm. 10 μg/ml of thrombin was digested with 2 μg/ml plasmin by incubation in 22° C. for 1 hour. Tissue culture plates were coated with digested […] by incubation at 4° C. for 2 hours. 1×10^6 B16-BL6 cells were incubated, at 22° C. for 30 mins. with increasing concentrations of Th-1 peptide (20-300 μg) prior to attachment to treated tissue culture plates by incubation at 37° C. for 2 hours. The attached cells were washed 3 times with PBS and fix with 3% formaldehyde. The level of attachment was evaluated by the methylene blue uptake assay described in I(E) above.

MIM/8 cells = test: Adhesion of high metastatic human melanoma cells MIM/8 to Th-1; type: cell-based; details: 100 μg/ml Th-1; compared with low metastatic MeWo
Protocol: as §2, §3

rat-aorta ring = test: Apoptosis in rat aorta ring by TUNEL nuclei staining; type: cell-based
Protocol: Apoptosis, or programmed cell death, can be evaluated by DNA fragmentation using a technique based on terminal deoxynucleotidyl transferase (TdT) reactivity with DNA breaks. This histochemical staining was based on the original "TUNEL" method (Gavrieli, et al., J. Cell Biol. 119:493-501 (1992)). Tissue was fixed in buffered formalin; after deparaffinization and hydration, the slide was quenched with H2 O2, in methanol. In order to strip the nuclear proteins, the tissue was preincubated in Tris-HCl and then incubated with proteinase K (20 μg/ml) for 15 minutes and washed. DNA fragments are elongated and labeled with biotinylated poly dUTP, introduced by terminal deoxynucleotidyl transferase. Finally, bound biotin is stained by avidin conjugated peroxidase, developed with nickle-enhanced diaminobenzidine. For positive control (FIG. 12, E) staining serves a preparation that was exposed to DNase digestion (according to Gavieli, et al., supra). […] It is important to emphasize that the RGD derived peptide-Th-1, is capable of inducing in addition to inhibition of micro-vessel sprout formation, cellular signaling of programmed cell death, indicating a possible explanation for the mechanism by which angiogenesis is prevented by Th-1.

Protocol for rat aorta rings: Type 1 collagen is prepared from the tail tendons of adult Sprague-Dawley rats. Briefly, the collagen fibers are solubilized by a slow stirring for. 48 hours at 4° C. in a sterile, 1/1000 (v/v) acetic acid solution (300 ml for 1 gr. of collagen). The resulting solution is filtered through a sterile triple gause and centrifuged at 16,000 gr for 1 hour at 4° C. The collagen matrix gel is obtained by simultaneously raising the pH and ionic strength of the collagen solution. For this purpose, seven vols. of collagen solution was quickly mixed with 1 vol. of 10×Minimum Essential Medium and 2 vols. of sodium bicarbonate (0.15 M).
Thoratic aortas are obtained from 1-2 month old SD rats sacrificed by decapitation. The aortas are immediately transferred to a Petri dish with PBS. The fibroadipose tissue around the aorta is carefully removed under a dissecting microscope and 1 mm long aortic rings are sectioned and extensively rinsed with PBS.
The collagen solution (0.2 ml) is added to each of 16 mm well and gellation was allowed for 15 mins. at 37° C. The aorta ring is transferred and positioned to the center of the gel and another 0.4 ml of the collagen solution is carefully poured on top of the ring. After the gel is formed, 0.4 ml of Serum-free Endothelial Growth Medium is added and changed every other day.
In this system, the rings of aorta are cultured in a three-dimensional gel of collagen sprouts to microvessel.

Substance | concentration at which inhibition of metastasis was evident (melanoma cells) [mg/mouse] | adhesion of B16-BL6 cells to the substrate (B16-BL6 cells [1]) | adherence of 61 cells to Th-1 compared to BSA control (MeWoLN161 (61) cells) | inhibition of lung colonization ([2]; 0.5 mg peptide/mouse, co-injected i.v. with B16-BL6 cells, 14 days) | effect on melanotic colonies in the lungs ([2]; co-injection with B16-BL6 cells, 14 days after injection, vs B16-BL6 alone) | potency in inhibiting metastasis of melanoma cells relative to GRGDS peptide ([2]; vs GRGDS of prior art) | adhesion of B16-F1 cells to the substrate (B16-F1 cells) | concentration at which inhibition of adhesion to modified RGD-exposed thrombin was already obtained (B16-BL6 cells [3]; B16-BL6 cells) [µM] | inhibition of adhesion of B16-BL6 cells to modified RGD-exposed thrombin (B16-BL6 cells [3]; cells preincubated with 20-300 μg peptide, 22° C., 30 mins) | adherence of MIM/8 cells to Th-1 compared to BSA control (MIM/8 cells) | concentration giving maximal induction of apoptosis (rat-aorta ring) [µg/mL] | apoptosis (nuclei staining, TUNEL) (rat-aorta ring; 10-250 μg/ml) | concentration giving 50% inhibition of explant formation (rat aorta rings) [µg/mL] | concentration giving complete inhibition (rat aorta rings) [µg/mL] | inhibition of angiogenesis in aorta rings (rat aorta rings; 100 μg/ml, vs peptide of similar size without RGD-site) | microvessel formation after longer incubation then washout (rat aorta rings; 150 μg/ml for 6 days, then fresh medium) | microvessel formation with peptide constantly present (rat aorta rings; 150 μg/ml, up to 14 days) | inhibition in sprout formation of the microvessel (rat aorta rings; 10-250 μg/ml)
GRGDS | 3 |  |  |  |  |  |  |  |  |  |  |  |  |  |  |  |  | 
AGYKPDEGKRGDAC [Th-1, I.D. No. 2, residues 178-191 of native thrombin] |  | high, dose dependent adhesion | significantly higher level of adherence | Over 90% | marked reduction of melanotic colonies | about 20 fold | low relatively dose independent adhesion level | 16 | inhibited, in a dose depended manner | significantly higher level of adherence | 250 | dose dependent manner | ~50 | 100 to 250 | able to inhibit angiogenesis | further increased inhibition | complete inhibition | dose dependent inhibition
